# According to patent publication US20260256756A1, “USE OF PIPERIDINE ALKENE COMPOUND IN PREPARATION OF DRUG FOR TREATING CANCER” (JIANGSU HANSOH PHARMACEUTICAL GROUP CO., LTD., priority 2023, published 2026):
# Columns and labels:
# [1] = system: human colorectal cancer cell line DLD-1 BRCA2−/− xenograft tumor; test: Subcutaneous xenograft tumor model of human colorectal cancer cell line DLD-1 BRCA2−/−; assay type: in vivo, BALB/c nude mice; settings: DLD-1 BRCA2 deletion
# From the text: • 1. Experimental objective: To evaluate the in vivo efficacy of compound 1 in a subcutaneous xenograft tumor model of human colorectal cancer cell line DLD-1 BRCA2^−/− in nude mice. • 2. Reagent • RPMI-1640 medium (22400-089, Gibco), fetal bovine serum (FBS) (10099-141C, Gibco) • Phosphate buffer (PBS, 10010-023, Gibco), HPMC (D180HB4005, Shanghai Colorcon Coating Technology Ltd.) • 0.25% Trypsin-EDTA (25200-056, Gibco), Pen Strep (P/S) (15140-122, Gibco) • 3. Experimental operations and data processing • 3.1 Animals: BALB/c nude mice, 6-8 weeks old, female, purchased from the Laboratory Animal Business Department of Shanghai Institute of Planned Parenthood Research. • 3.2 Cell culture and cell suspension preparation • a. A vial of DLD-1 BRCA2^−/− cells was taken from a cell bank, the cells were thawed with RPMI-1640 medium (RPMI-1640+10% FBS), and the thawed cells were placed in a cell culture flask (with the cell type, date, the name of the culture operator, etc., being marked on the wall of the flask), which were placed in a CO2 incubator for culturing (wherein the temperature of the incubator was 37° C., and the CO2 concentration was 5%). • b. The cells were passaged every three days, and after passage, the cells were placed in the CO2 incubator to continue the culture. This process was repeated until the cell number met the requirements for in vivo efficacy. • c. The cultured cells were collected, counted using a full-automatic cell counter, and resuspended with PBS on the basis of the counting results to prepare a cell suspension (at a density of 5×10^7/mL), which was then placed in an ice box for later use. • 3.3 Cell inoculation • a. Before inoculation, the nude mice were marked with disposable universal ear tags for mice and rats. • b. At the time of inoculation, the cell suspension was mixed uniformly, 0.1-1 mL of the cell suspension was aspirated using a 1 mL syringe with air bubbles expelled, and the syringe was then placed on an ice bag for later use. • c. The nude mouse was secured with the left hand, the right dorsal area near the right shoulder (inoculation site) of the nude mouse was disinfected with a 75% alcohol cotton ball, and inoculation was initiated after 30 seconds. • d. The experimental nude mice were inoculated sequentially (0.1 mL of cell suspension per mouse). • 3.4 Tumor measurement, grouping and administration in tumor-bearing mice • a. Tumor was measured on days 10-18 after inoculation depending on the tumor growth, and the tumor size was calculated.
# tumor volume (mm^3)=length (mm)×width (mm)×width (mm)/2 Tumor volume calculation: • b. According to the body weight of tumor-bearing mice and the size of the tumor, the mice were grouped by random grouping. • c. According to the grouping results, the test drug was started to be administered (administration method: oral administration; administration volume: 10 mL/kg; administration frequency: once/day; administration cycle: 28 days; vehicle: 0.5% HPMC). • d. Tumor measurement and weighing were performed twice a week after starting administration of test drugs. • e. The animals were euthanized at the end of the experiment. • f. Data processing was performed using software such as GraphPad Prism. The tumor inhibitory efficacy of the compound was evaluated by TGI (%) and ΔT/ΔC (%). ΔT/ΔC (%)=(T−T0)/(C−C0)×100, where T and C are the tumor volumes of the treatment group and the vehicle control group at the end of the experiment, respectively, and T0 and C0 are the tumor volumes of the treatment group and the vehicle control group at the beginning of the experiment, respectively. Tumor growth inhibition (TGI) (%)=100−ΔT/ΔC (%). Tumor growth inhibition (TGI) (%)=100−(T−T0)/T0×100 when tumor regression occurs • 4. Experimental results and conclusions
# OVCAR-3 cells = test: In vitro proliferation inhibition (CellTiter-Glo), OVCAR-3; assay type: cell-based; settings: Homo sapiens; OVCAR-3, ovarian cancer; 6-10 days culture
# From the text: […]
# (§1) Experimental data processing method: The luminescence signal value was used to calculate the inhibition rate. […]
# MX-1 cells = test: In vitro proliferation inhibition (CellTiter-Glo), MX-1; assay type: cell-based; settings: Homo sapiens, MX1; MX-1, triple-negative breast cancer, BRCA1 mutation; 6-10 days culture
# From the text: […]
# as §1
# [2] = 0.3 mg/kg oral once/day, Day 28
# [3] = 100 mg/kg oral once/day, Day 28
IC50 (OVCAR-3 cells) [nM],Compound,"Tumor volume (Mean ± SEM) ([1]; 0.3 mg/kg oral once/day, Day 0) [mm^3]","T/C [1, 2] [%]","TGI [1, 2] [%]","Tumor volume (Mean ± SEM) [1, 2] [mm^3]",IC50 (MX-1 cells) [nM],"Tumor volume (Mean ± SEM) ([1]; 100 mg/kg oral once/day, Day 0) [mm^3]","T/C [1, 3] [%]","TGI [1, 3] [%]","Tumor volume (Mean ± SEM) [1, 3] [mm^3]"
5.1 ± 1.4,CCc1cc2ncc(CN3CCN(c4ccc(C(=O)NC)nc4)CC3)cc2[nH]c1=O [AZD5305],154 ± 12,6.20,140.20,92 ± 22,4.1 ± 1.6,,,,
319 ± 47,O=C(c1cc(Cc2n[nH]c(=O)c3ccccc23)ccc1F)N1CCN(C(=O)C2CC2)CC1 [Olaparib],,,,,246 ± 104,154 ± 13,63.43,40.81,942 ± 112
